Patent US20250243196A1, “CITRON KINASE INHIBITORS” (The Cleveland Clinic Foundation, priority 2021, published 2025)

Experiments:
Assay in all cases: KinaseProfiler panel
Format in all cases: biochemical
Conditions in all cases: activity remaining
[1] = target: Abl(h) (Homo sapiens (Human), UniProt P00519); design: dose or concentration left out as unconfirmed
[2] = target: ALK4(h) (Homo sapiens (Human), UniProt P36896); design: dose or concentration left out as unconfirmed
[3] = target: ARK5(h) (Homo sapiens (Human), UniProt O60285); design: dose or concentration left out as unconfirmed
[4] = target: CaMKI(h) (Homo sapiens (Human), UniProt Q14012); design: dose or concentration left out as unconfirmed
[5] = target: CaMKIγ(h) (Homo sapiens (Human), UniProt Q96NX5); design: dose or concentration left out as unconfirmed
Chain of CaMKIγ(h) (Q96NX5 whole entry): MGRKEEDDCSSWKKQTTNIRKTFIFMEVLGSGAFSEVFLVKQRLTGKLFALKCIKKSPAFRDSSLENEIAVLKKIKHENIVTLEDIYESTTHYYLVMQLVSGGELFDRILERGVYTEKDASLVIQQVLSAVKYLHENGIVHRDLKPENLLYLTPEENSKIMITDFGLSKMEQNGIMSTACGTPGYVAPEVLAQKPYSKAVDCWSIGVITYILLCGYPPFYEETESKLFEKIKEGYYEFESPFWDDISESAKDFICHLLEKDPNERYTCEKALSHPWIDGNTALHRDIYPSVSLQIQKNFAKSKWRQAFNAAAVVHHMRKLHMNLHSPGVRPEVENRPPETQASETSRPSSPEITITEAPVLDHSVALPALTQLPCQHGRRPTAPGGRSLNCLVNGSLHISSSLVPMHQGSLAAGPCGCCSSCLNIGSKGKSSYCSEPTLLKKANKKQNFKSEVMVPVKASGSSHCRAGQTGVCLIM

[6] = target: CDK6/cyclinD3(h) (Homo sapiens (Human), UniProt Q00534); design: dose or concentration left out as unconfirmed
[7] = target: CDKL2(h) (Homo sapiens (Human), UniProt Q92772); design: dose or concentration left out as unconfirmed
Chain of CDKL2(h) (Q92772 whole entry): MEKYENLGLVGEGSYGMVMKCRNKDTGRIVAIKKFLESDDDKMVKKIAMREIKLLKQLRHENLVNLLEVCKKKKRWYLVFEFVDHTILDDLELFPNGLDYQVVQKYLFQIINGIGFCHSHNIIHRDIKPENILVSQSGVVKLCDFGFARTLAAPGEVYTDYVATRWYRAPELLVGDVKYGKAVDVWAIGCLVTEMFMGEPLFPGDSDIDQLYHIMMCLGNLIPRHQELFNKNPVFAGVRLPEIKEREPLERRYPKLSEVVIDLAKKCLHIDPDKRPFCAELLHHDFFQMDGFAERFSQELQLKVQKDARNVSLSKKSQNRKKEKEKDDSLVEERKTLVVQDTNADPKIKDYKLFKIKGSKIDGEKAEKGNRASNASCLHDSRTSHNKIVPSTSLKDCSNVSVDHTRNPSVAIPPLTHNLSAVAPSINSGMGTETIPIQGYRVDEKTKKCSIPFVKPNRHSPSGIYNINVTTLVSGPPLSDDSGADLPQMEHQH

[8] = target: CLK2(h) (Homo sapiens (Human), UniProt P49760); design: dose or concentration left out as unconfirmed
Chain of CLK2(h) (P49760 whole entry): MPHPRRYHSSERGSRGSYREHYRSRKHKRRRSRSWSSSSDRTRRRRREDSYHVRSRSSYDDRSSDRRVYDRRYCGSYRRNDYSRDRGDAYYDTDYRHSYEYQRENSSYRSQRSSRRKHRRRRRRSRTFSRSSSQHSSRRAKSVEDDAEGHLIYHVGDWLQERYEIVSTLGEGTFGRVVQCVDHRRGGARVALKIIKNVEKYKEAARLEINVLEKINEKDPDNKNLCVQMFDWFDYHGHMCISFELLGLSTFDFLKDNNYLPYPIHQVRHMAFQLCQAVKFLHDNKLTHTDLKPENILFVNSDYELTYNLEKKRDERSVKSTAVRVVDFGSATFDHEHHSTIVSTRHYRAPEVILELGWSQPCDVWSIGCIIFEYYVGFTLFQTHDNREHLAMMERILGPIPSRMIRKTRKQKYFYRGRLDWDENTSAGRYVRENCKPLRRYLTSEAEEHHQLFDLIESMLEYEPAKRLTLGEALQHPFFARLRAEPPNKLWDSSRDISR

[9] = target: CSK(h) (Homo sapiens (Human), UniProt P41240); design: dose or concentration left out as unconfirmed
[10] = target: cSRC(h) (Homo sapiens (Human), UniProt P12931); design: dose or concentration left out as unconfirmed
[11] = target: DYRK1B(h) (Homo sapiens (Human), UniProt Q9Y463); design: dose or concentration left out as unconfirmed
[12] = target: JNK2α2(h) (Homo sapiens (Human), UniProt P45984); design: dose or concentration left out as unconfirmed
[13] = target: KDR(h) (Homo sapiens (Human), UniProt P35968); design: dose or concentration left out as unconfirmed
[14] = target: LOK(h) (Homo sapiens (Human), UniProt O94804); design: dose or concentration left out as unconfirmed
[15] = target: LRRK2(h) (Homo sapiens (Human), UniProt Q5S007); design: dose or concentration left out as unconfirmed
[16] = target: MEK2(h) (Homo sapiens (Human), UniProt P36507); design: dose or concentration left out as unconfirmed
[17] = target: MELK(h) (Homo sapiens (Human), UniProt Q14680); design: dose or concentration left out as unconfirmed
[18] = target: Met(h) (Homo sapiens (Human), UniProt P08581); design: dose or concentration left out as unconfirmed
[19] = target: NEK11(h) (Homo sapiens (Human), UniProt Q8NG66); design: dose or concentration left out as unconfirmed
Chain of NEK11(h) (Q8NG66 whole entry): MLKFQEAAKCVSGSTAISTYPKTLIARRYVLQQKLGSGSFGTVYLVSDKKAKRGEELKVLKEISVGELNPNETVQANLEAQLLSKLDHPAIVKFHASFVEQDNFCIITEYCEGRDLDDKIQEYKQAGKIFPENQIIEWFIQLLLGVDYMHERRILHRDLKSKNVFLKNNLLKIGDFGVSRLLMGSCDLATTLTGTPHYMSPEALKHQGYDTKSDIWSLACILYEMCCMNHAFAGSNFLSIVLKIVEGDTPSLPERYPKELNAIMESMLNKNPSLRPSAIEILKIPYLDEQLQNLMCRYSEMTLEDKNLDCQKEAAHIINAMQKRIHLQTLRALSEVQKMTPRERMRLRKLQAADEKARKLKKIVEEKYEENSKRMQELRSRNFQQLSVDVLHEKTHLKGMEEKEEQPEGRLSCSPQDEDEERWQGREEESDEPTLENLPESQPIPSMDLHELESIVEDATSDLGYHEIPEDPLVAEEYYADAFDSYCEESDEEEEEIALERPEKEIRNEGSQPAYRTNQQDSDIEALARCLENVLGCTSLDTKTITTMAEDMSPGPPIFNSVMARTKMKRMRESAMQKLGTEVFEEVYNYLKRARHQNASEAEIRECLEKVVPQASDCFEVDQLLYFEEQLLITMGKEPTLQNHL

[20] = target: NEK6(h) (Homo sapiens (Human), UniProt Q9HC98); design: dose or concentration left out as unconfirmed
[21] = target: Pim-3(h) (Homo sapiens (Human), UniProt Q86V86); design: dose or concentration left out as unconfirmed
[22] = target: PKA(h) (Homo sapiens (Human), UniProt P17612); design: dose or concentration left out as unconfirmed
[23] = target: PKCδ(h) (Homo sapiens (Human), UniProt Q05655); design: dose or concentration left out as unconfirmed
[24] = target: Rsk1(h) (Homo sapiens (Human), UniProt Q15418); design: dose or concentration left out as unconfirmed
Chain of Rsk1(h) (Q15418 whole entry): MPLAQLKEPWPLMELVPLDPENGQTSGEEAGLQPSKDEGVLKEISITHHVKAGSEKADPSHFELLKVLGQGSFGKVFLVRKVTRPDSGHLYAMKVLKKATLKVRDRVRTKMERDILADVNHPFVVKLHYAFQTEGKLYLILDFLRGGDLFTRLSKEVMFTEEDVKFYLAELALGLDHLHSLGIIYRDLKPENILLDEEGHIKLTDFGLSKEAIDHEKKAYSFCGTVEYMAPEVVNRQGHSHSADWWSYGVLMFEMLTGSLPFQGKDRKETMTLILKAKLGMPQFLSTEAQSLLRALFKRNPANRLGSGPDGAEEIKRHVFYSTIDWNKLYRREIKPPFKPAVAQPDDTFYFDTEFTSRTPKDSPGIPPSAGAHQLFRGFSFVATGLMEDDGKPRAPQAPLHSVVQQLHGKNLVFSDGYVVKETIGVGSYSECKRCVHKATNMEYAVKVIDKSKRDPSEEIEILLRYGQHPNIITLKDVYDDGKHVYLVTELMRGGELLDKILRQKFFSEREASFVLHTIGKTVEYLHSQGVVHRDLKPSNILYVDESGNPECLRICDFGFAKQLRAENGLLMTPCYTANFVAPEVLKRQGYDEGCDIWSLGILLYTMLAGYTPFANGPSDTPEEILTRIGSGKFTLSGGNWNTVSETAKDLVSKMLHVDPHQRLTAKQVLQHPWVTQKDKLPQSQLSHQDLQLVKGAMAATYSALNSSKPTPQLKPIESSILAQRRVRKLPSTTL

[25] = target: STK32C(h) (Homo sapiens (Human), UniProt Q86UX6)
[26] = target: Tie2 (h) (Homo sapiens (Human), UniProt Q02763); design: dose or concentration left out as unconfirmed
Chain of Tie2 (h) (Q02763 23-1124): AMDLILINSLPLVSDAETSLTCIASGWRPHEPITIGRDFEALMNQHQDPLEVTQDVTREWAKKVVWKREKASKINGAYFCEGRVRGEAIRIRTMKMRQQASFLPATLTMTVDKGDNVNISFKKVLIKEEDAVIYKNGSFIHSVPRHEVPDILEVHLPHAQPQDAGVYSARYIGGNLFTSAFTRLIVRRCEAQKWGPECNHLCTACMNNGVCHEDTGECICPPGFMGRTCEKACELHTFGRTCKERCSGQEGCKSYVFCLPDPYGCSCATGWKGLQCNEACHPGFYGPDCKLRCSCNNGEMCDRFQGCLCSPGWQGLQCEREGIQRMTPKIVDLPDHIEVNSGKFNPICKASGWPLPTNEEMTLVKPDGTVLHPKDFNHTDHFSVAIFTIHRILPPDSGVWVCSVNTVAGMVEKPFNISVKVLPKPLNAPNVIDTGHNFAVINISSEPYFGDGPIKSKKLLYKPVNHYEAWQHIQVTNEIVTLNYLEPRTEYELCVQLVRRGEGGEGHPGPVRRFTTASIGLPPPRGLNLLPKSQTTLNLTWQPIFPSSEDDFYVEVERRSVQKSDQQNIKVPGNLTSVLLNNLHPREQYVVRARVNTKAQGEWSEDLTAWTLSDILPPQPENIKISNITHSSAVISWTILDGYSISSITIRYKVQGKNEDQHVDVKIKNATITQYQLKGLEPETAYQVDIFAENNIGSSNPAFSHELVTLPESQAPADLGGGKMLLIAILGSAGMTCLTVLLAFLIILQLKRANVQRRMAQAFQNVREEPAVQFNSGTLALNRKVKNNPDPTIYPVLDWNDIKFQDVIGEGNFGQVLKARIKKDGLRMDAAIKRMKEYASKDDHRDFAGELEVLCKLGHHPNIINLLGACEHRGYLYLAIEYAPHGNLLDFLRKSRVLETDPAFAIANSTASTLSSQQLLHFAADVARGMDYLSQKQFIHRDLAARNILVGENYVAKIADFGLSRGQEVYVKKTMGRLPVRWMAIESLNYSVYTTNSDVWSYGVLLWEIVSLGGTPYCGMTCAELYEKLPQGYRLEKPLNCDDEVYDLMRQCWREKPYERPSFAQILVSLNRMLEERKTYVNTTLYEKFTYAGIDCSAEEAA

[27] = target: TSSK2(h) (Homo sapiens (Human), UniProt Q96PF2); design: dose or concentration left out as unconfirmed

Chain of ALK4(h) (P36896 24-505): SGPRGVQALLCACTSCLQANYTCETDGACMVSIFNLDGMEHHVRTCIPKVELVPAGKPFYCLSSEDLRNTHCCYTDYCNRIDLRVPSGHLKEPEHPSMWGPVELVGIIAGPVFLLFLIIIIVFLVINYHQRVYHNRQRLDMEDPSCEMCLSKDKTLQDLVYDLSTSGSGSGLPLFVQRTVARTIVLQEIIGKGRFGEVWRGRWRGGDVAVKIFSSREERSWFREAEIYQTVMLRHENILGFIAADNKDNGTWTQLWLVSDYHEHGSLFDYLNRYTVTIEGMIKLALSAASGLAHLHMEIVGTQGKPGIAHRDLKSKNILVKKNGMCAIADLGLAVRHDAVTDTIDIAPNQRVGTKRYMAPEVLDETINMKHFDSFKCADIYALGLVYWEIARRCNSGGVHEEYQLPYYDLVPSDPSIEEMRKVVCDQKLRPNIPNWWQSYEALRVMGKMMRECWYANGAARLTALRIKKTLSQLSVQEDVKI

## Cc1cc2c(-c3ccc(NC(=O)[C@H](N)CC(C)(C)C)cc3C)ccnc2[nH]1 [Compound F-90, (2R)-2-Amino-4,4-dimethyl-N-[3-methyl-4-(2-methyl-1H-pyrrolo[2,3-b]pyridin-4-yl)phenyl]pentanamide]
[1]
  % Activity: 99%
[2]
  % Activity: 94%
[3]
  % Activity: 85%
[4]
  % Activity: 104%
[5]
  % Activity: 110%
[6]
  % Activity: 90%
[7]
  % Activity: 80%
[8]
  % Activity: 106%
[9]
  % Activity: 92%
[10]
  % Activity: 93%
[11]
  % Activity: 108%
[12]
  % Activity: 99%
[13]
  % Activity: 78%
[14]
  % Activity: 96%
[15]
  % Activity: 100%
[16]
  % Activity: 92%
[17]
  % Activity: 82%
[18]
  % Activity: 90%
[19]
  % Activity: 97%
[20]
  % Activity: 86%
[21]
  % Activity: 103%
[22]
  % Activity: 109%
[23]
  % Activity: 93%
[24]
  % Activity: 99%
[25]
  % Activity: 85%
[26]
  % Activity: 99%
[27]
  % Activity: 113%
